In patent US20060199821A1, “Heterocyclic amides and sulfonamides” (Scios, Inc., priority 2003, published 2006):

What follows are compounds tested against p38-α kinase (Homo sapiens, UniProt Q16539) (assay: Human whole blood assay for p38 kinase inhibition, diluted (1:10) whole blood, LPS-induced TNF-α by ELISA). Conditions: LPS-stimulated TNF-α production.
Assay type: cell-based
Experimental: For each of the assay procedures described below, the TNF-α production correlates to the activity of p38-α kinase.
A. Human Whole Blood Assay for p38 Kinase Inhibition
Venous blood is collected from healthy male volunteers into a heparinized syringe and is used within 2 hours of collection. Test compounds are dissolved in 100% DMSO and 1 μl aliquots of drug concentrations ranging from 0 to 1 mM are dispensed into quadruplicate wells of a 24-well microtiter plate (Nunclon Delta SI, Applied Scientific, So. San Francisco, Calif.). Whole blood is added at a volume of 1 ml/well and the mixture is incubated for 15 minutes with constant shaking (Titer Plate Shaker, Lab-Line Instruments, Inc., Melrose Park, Ill.) at a humidified atmosphere of 5% CO2 at 37° C. Whole blood is cultured either undiluted or at a final dilution of 1:10 with RPMI 1640 (Gibco 31800+NaHCO3, Life Technologies, Rockville, Md. and Scios, Inc., Sunnyvale, Calif.). At the end of the incubation period, 10 μl of LPS (E. coli 0111:B4, Sigma Chemical Co., St. Louis, Mo.) is added to each well to a final concentration of 1 or 0.1 μg/ml for undiluted or 1:10 diluted whole blood, respectively. The incubation is continued for an additional 2 hours. The reaction is stopped by placing the microtiter plates in an ice bath and plasma or cell-free supernates are collected by centrifugation at 3000 rpm for 10 minutes at 4° C. The plasma samples are stored at −80° C. until assayed for TNF-α levels by ELISA, following the directions supplied by Quantikine Human TNF-α assay kit (R&D Systems, Minneapolis, Minn.).
IC50 values are calculated using the concentration of inhibitor that causes a 50% decrease as compared to a control. IC50 values can be determined with curve-fitting plots available with common software packages. Approximate IC50 values can be calculated using formula: IC50 (app)=A×i/(1−A)
where A=fractional activity and i=total inhibitor concentration.
IC50 values are calculated using the concentration of inhibitor that causes a 50% decrease as compared to a control.

Chain of p38-α kinase (Q16539 whole entry): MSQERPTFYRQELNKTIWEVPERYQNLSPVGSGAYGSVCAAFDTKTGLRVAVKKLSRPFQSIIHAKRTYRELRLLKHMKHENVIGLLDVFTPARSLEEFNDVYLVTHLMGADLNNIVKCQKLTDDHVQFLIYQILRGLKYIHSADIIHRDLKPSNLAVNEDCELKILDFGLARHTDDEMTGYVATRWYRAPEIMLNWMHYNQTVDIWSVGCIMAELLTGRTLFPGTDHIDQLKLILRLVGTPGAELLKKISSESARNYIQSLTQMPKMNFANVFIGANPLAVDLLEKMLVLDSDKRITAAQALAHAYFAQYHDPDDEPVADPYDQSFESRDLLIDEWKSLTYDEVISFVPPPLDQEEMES

Row | Compound | IC50 [nM]
1 | CCN(C(=O)c1ccc2c(c1)CCO2)c1ccnc(N[C@@H](C)c2ccccc2)n1 [Example 84] | < 1000
2 | COCCN(C(=O)c1ccc2ccccc2c1)c1ccnc(N[C@@H](C)c2ccccc2)n1 [Example 76] | < 1000
3 | CCN(C(=O)c1ccc2ccccc2c1)c1ccnc(N[C@@H](C)c2ccccc2)n1 [Example 20, Naphthalene-2-carboxylic acid ethyl-[2-(1S-phenyl-ethylamino)-pyrimidin-4-yl]-amide] | < 1000

Second part, the compound after the results:

Row | IC50 [nM] | Compound
4 | < 1000 | CC(C)N(C(=O)c1ccc2ccccc2c1)c1ccnc(N[C@@H](C)c2ccccc2)n1 [Example 73]
5 | < 1000 | C[C@H](Nc1nccc(N(Cc2cccnc2)C(=O)c2ccc3ccccc3c2)n1)c1ccccc1 [Example 83]
6 | < 1000 | C[C@H](Nc1nccc(N(C)C(=O)c2ccc3ccccc3c2)n1)c1ccccc1 [Example 77]
7 | < 1000 | C[C@H](Nc1nccc(N(Cc2ccc(F)cc2)C(=O)c2ccc3ccccc3c2)n1)c1ccccc1 [Example 70]
